Measurements from patent US20260184710A1, “CASITAS B-LINEAGE LYMPHOMA PROTOONCOGENE B (CBL-B) DEGRADING COMPOUNDS AND ASSOCIATED METHODS OF USE” (Arvinas Operations, Inc., priority 2022, published 2026).

How the values were obtained:
[1] = biological target: T1, Cbl-b (Homo sapiens, UniProt Q13191); test: Cbl-b Degradation Method A (FACS, anti-Cbl-b antibody staining); assay type: cell-based; conditions: Cbl-b-HiBit KI Jurkat Cells, incubated at least 20 hours; for DC50: half maximal degradation, read-out: Cbl-b Degredation Method A IC50; for Dmax: Jurkat, maximum degradation observed, read-out: Cbl-b Degredation Method A Dmax (%)
T1 construct: Cbl-b-HiBit KI Jurkat Cells were purchased from Promega; host or cells: Cbl-b-HiBiT knock-in Jurkat cells
How it was run: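 Readout is flow cytometry of fixed, permeabilized cells immunostained for Cbl-b (primary 1:200, AF488 secondary). Cells were Cbl-b-HiBit knock-in Jurkat, exposed to compound ≥20 h at 37 °C; half-maximal degradation concentration (DC50) and maximal degradation (Dmax) calculated relative to control.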

[2] = biological target: T1, Cbl-b; test: Cbl-b Degradation Method B (Nano-Glo HiBiT lytic detection); assay type: cell-based; conditions: Cbl-b-HiBit KI Jurkat Cells, incubated at least 6-24 hours; for DC50: half maximal degradation, read-out: Cbl-b Degredation Method B IC50; for Cbl-b Degredation Method B Dmax (%) / Dmax: maximum degradation observed; for Dmax: read-out: Cbl-b Degredation Method B Dmax (%)
How it was run: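 An 11-point, 3-fold compound dilution was applied for 6-24 hours to Jurkat cells carrying HiBiT-tagged endogenous Cbl-b. Lytic HiBiT luminescence quantified residual protein. Outputs are DC50 and Dmax relative to DMSO control.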

T1 sequence (Q13191 whole entry): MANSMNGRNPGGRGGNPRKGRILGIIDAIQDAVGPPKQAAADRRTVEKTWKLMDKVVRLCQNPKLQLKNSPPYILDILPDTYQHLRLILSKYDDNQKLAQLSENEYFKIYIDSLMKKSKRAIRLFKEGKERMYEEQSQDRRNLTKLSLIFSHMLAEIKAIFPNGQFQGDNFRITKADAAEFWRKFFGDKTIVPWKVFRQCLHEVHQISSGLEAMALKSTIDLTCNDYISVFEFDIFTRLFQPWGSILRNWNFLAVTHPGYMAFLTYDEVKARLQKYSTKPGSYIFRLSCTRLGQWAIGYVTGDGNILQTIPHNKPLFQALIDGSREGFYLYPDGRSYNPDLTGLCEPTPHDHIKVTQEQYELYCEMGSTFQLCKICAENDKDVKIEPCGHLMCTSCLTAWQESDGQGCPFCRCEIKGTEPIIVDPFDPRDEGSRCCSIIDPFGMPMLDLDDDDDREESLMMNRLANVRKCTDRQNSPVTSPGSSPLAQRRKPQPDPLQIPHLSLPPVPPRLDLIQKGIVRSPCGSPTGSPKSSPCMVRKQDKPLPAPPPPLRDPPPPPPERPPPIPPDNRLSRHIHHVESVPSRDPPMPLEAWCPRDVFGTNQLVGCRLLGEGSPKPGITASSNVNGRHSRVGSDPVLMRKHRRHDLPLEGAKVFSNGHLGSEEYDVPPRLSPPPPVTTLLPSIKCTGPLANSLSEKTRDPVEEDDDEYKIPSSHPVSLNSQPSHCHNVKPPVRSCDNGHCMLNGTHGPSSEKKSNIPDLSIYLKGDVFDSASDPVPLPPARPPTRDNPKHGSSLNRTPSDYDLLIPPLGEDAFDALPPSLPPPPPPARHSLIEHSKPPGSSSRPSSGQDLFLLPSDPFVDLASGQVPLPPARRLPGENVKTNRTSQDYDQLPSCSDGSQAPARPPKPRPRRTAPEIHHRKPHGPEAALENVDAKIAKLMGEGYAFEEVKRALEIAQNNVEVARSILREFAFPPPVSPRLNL

Compound	DC50 [1] [nM]	Dmax [1] [%]	DC50 [2] [nM]	Cbl-b Degredation Method B Dmax (%) [2]	Dmax [2] [%]
CC(C)n1c(=O)n(C2CCC(=O)NC2=O)c2cccc(N3CCC(O[C@H]4CC[C@H](CN5CC6(CCN(Cc7cc8c(c(C(F)(F)F)c7)CN(c7cccc([C@]9(Cc%10nncn%10C)C[C@@H](C#N)C9)c7)C8=O)CC6)C5)CC4)CC3)c21 (stereo partly shown) [Example 321, (1r,3r)-3-[(4-methyl-4H-1,2,4-triazol-3-yl)methyl]-3-(3-{1-oxo-6-[(2-{[(1r,4r)-4-({1-[1-(2,6-dioxopiperidin-3-yl)-2-oxo-3-(propan-2-yl)-2,3-dihydro-1H-1,3-benzodiazol-4-yl]piperidin-4-yl}oxy)cyclohexyl]methyl}-2,7-diazaspiro[3.5]nonan-7-yl)methyl]-4-(trifluoromethyl)-2,3-dihydro-1H-isoindol-2-yl}phenyl)cyclobutane-1-carbonitrile]	5 to 50	< 35	< 5	C (C ≤ 35)	–
Cn1cnnc1CC1(c2cccc(N3Cc4c(cc(N5CC6(CCN(CC7CN(c8ccc9c(c8)C(=O)N(C8CCC(=O)NC8=O)C9=O)C7)CC6)C5)cc4C(F)(F)F)C3=O)c2)COC1 (stereo not shown) [Example 132, 2-(2,6-dioxopiperidin-3-yl)-5-[3-({2-[2-(3-{3-[(4-methyl-4H-1,2,4-triazol-3-yl)methyl]oxetan-3-yl}phenyl)-3-oxo-7-(trifluoromethyl)-2,3-dihydro-1H-isoindol-5-yl]-2,7-diazaspiro[3.5]nonan-7-yl}methyl)azetidin-1-yl]-2,3-dihydro-1H-isoindole-1,3-dione]	5 to 50	35 to 70	< 5	–	35 to 70
Cn1cnnc1C[C@]1(c2cccc(N3Cc4c(cc(CN5CCN(C[C@H]6CC[C@H](OC7CCN(c8ccc9c(c8F)CN(C8CCC(=O)NC8=O)C9=O)CC7)CC6)CC5)cc4C(F)(F)F)C3=O)c2)C[C@H](C#N)C1 (stereo partly shown) [Example 167, (1r,3r)-3-[(4-methyl-4H-1,2,4-triazol-3-yl)methyl]-3-(3-{1-oxo-6-[(4-{[(1r,4r)-4-({1-[2-(2,6-dioxopiperidin-3-yl)-4-fluoro-1-oxo-2,3-dihydro-1H-isoindol-5-yl]piperidin-4-yl}oxy)cyclohexyl]methyl}piperazin-1-yl)methyl]-4-(trifluoromethyl)-2,3-dihydro-1H-isoindol-2-yl}phenyl)cyclobutane-1-carbonitrile]	< 5	> 70	< 5	–	35 to 70
CC1c2nc(N3CCC(O[C@H]4CC[C@H](CN5C[C@H]6C[C@@H]5CN6c5cc6c(c(C(F)(F)F)c5)CN(c5cccc([C@]7(Cc8nncn8C)C[C@@H](C#N)C7)c5)C6=O)CC4)CC3)ccc2C(=O)N1C1CCC(=O)NC1=O (stereo partly drawn) [Example 181, (1r,3r)-3-[(4-methyl-4H-1,2,4-triazol-3-yl)methyl]-3-(3-{1-oxo-6-[(1R,4R)-5-{[(1r,4r)-4-({1-[6-(2,6-dioxopiperidin-3-yl)-7-methyl-5-oxo-5H,6H,7H-pyrrolo[3,4-b]pyridin-2-yl]piperidin-4-yl}oxy)cyclohexyl]methyl}-2,5-diazabicyclo[2.2.1]heptan-2-yl]-4-(trifluoromethyl)-2,3-dihydro-1H-isoindol-2-yl}phenyl)cyclobutane-1-carbonitrile]	< 5	35 to 70	< 5	–	35 to 70
COC1CC(Cc2nncn2C)(c2cccc(N3Cc4c(cc(CN5CCN(C[C@H]6CC[C@H](OC7CCN(c8ccc9c(n8)C(C)N(C8CCC(=O)NC8=O)C9=O)CC7)CC6)CC5(C)C)cc4C(F)(F)F)C3=O)c2)C1 (stereo partly shown) [Example 294, 3-[7-methyl-5-oxo-2-(4-{[(1r,4r)-4-[(4-{[2-(3-{3-methoxy-1-[(4-methyl-4H-1,2,4-triazol-3-yl)methyl]cyclobutyl}phenyl)-3-oxo-7-(trifluoromethyl)-2,3-dihydro-1H-isoindol-5-yl]methyl}-3,3-dimethylpiperazin-1-yl)methyl]cyclohexyl]oxy}piperidin-1-yl)-5H,6H,7H-pyrrolo[3,4-b]pyridin-6-yl]piperidine-2,6-dione]	50 to 500	> 70	< 5	C (C ≤ 35)	–
CC(C)n1c(=O)n(C2CCC(=O)NC2=O)c2cccc(N3CCC(O[C@H]4CC[C@H](CN5CCC6(CC5)CN(Cc5cc7c(c(C(F)(F)F)c5)CN(c5cccc([C@]8(Cc9nncn9C)C[C@@H](C#N)C8)c5)C7=O)C6)CC4)CC3)c21 (stereo partly shown) [Example 320, (1r,3r)-3-[(4-methyl-4H-1,2,4-triazol-3-yl)methyl]-3-(3-{1-oxo-6-[(7-{[(1r,4r)-4-({1-[1-(2,6-dioxopiperidin-3-yl)-2-oxo-3-(propan-2-yl)-2,3-dihydro-1H-1,3-benzodiazol-4-yl]piperidin-4-yl}oxy)cyclohexyl]methyl}-2,7-diazaspiro[3.5]nonan-2-yl)methyl]-4-(trifluoromethyl)-2,3-dihydro-1H-isoindol-2-yl}phenyl)cyclobutane-1-carbonitrile]	50 to 500	> 70	< 5	C (C ≤ 35)	–
C[C@H]1CN(Cc2cc3c(c(C(F)(F)F)c2)CN(c2cccc(C4(Cc5nncn5C)COC4)c2)C3=O)CCN1CC1CCC(OC2CCN(c3ccc4c(c3F)CN(C3CCC(=O)NC3=O)C4=O)CC2)CC1 (stereo partly drawn) [Example 237, 3-[4-fluoro-1-oxo-5-(4-{[(1rs,4rs)-4-{[(2S)-2-methyl-4-{[2-(3-{3-[(4-methyl-4H-1,2,4-triazol-3-yl)methyl]oxetan-3-yl}phenyl)-3-oxo-7-(trifluoromethyl)-2,3-dihydro-1H-isoindol-5-yl]methyl}piperazin-1-yl]methyl}cyclohexyl]oxy}piperidin-1-yl)-2,3-dihydro-1H-isoindol-2-yl]piperidine-2,6-dione]	< 5	> 70	< 5	–	> 70
Cn1cnnc1CC1(c2cccc(N3Cc4c(cc(CN5CCC[C@@H](CN6CCC(CC7CCN(c8ccc9c(c8)C(=O)N(C8CCC(=O)NC8=O)C9=O)CC7)CC6)C5)cc4C(F)(F)F)C3=O)c2)COC1 (stereo partly drawn) [Example 110, 2-(2,6-dioxopiperidin-3-yl)-5-{4-[(1-{[(3S)-1-{[2-(3-{3-[(4-methyl-4H-1,2,4-triazol-3-yl)methyl]oxetan-3-yl}phenyl)-3-oxo-7-(trifluoromethyl)-2,3-dihydro-1H-isoindol-5-yl]methyl}piperidin-3-yl]methyl}piperidin-4-yl)methyl]piperidin-1-yl}-2,3-dihydro-1H-isoindole-1,3-dione]	5 to 50	< 35	> 500	–	–
Cn1cnnc1CC1(c2cccc(N3Cc4c(cc(N5CC(C6CCN(c7ccc8c(c7)C(=O)N(C7CCC(=O)NC7=O)C8=O)CC6)C5)cc4C(F)(F)F)C3=O)c2)COC1 (stereo not shown) [Example 129, 2-(2,6-dioxopiperidin-3-yl)-5-(4-{1-[2-(3-{3-[(4-methyl-4H-1,2,4-triazol-3-yl)methyl]oxetan-3-yl}phenyl)-3-oxo-7-(trifluoromethyl)-2,3-dihydro-1H-isoindol-5-yl]azetidin-3-yl}piperidin-1-yl)-2,3-dihydro-1H-isoindole-1,3-dione]	50 to 500	–	> 500	–	–
Cn1cnnc1CC1(c2cccc(N3Cc4c(cc(N5CCC(CN6CCC7(CC6)CN(c6ccc8c(c6)C(=O)N(C6CCC(=O)NC6=O)C8=O)C7)CC5)cc4C(F)(F)F)C3=O)c2)COC1 (stereo not shown) [Example 23, 2-(2,6-dioxopiperidin-3-yl)-5-[7-({1-[2-(3-{3-[(4-methyl-4H-1,2,4-triazol-3-yl)methyl]oxetan-3-yl}phenyl)-3-oxo-7-(trifluoromethyl)-2,3-dihydro-1H-isoindol-5-yl]piperidin-4-yl}methyl)-2,7-diazaspiro[3.5]nonan-2-yl]-2,3-dihydro-1H-isoindole-1,3-dione]	50 to 500	< 35	> 500	–	–
Cn1cnnc1CC1(c2cccc(N3Cc4c(cc(N5CCC(CC6CN(c7ccc8c(c7)C(=O)N(C7CCC(=O)NC7=O)C8=O)C6)CC5)cc4C(F)(F)F)C3=O)c2)COC1 (stereo not shown) [Example 134, 2-(2,6-dioxopiperidin-3-yl)-5-[3-({1-[2-(3-{3-[(4-methyl-4H-1,2,4-triazol-3-yl)methyl]oxetan-3-yl}phenyl)-3-oxo-7-(trifluoromethyl)-2,3-dihydro-1H-isoindol-5-yl]piperidin-4-yl}methyl)azetidin-1-yl]-2,3-dihydro-1H-isoindole-1,3-dione]	50 to 500	< 35	> 500	–	–
Cn1cnnc1CC1(c2cccc(N3Cc4c(cc(N5CCC(CN6CC7(CCN(c8ccc9c(c8)C(=O)N(C8CCC(=O)NC8=O)C9=O)CC7)C6)CC5)cc4C(F)(F)F)C3=O)c2)COC1 (stereo not shown) [Example 11, 2-(2,6-dioxo-3-piperidyl)-5-[2-[[1-[2-[3-[3-[(4-methyl-1,2,4-triazol-3-yl)methyl]oxetan-3-yl]phenyl]-3-oxo-7-(trifluoromethyl)isoindolin-5-yl]-4-piperidyl]methyl]-2,7-diazaspiro[3.5]nonan-7-yl]isoindoline-1,3-dione]	5 to 50	< 35	5 to 50	–	< 35
